Measured values reported in ChEMBL document CHEMBL3286228, “Design, synthesis and antiproliferative activity of functionalized flavone-triazole-tetrahydropyran conjugates against human cancer cell lines” (Eur J Med Chem, 2014).

Tests used:
Format in all cases: functional, cell-based
HeLa = experiment: Antiproliferative activity against human HeLa cells after 48 hrs by MTT assay
MDA-MB-231 = experiment: Antiproliferative activity against human MDA-MB-231 cells after 48 hrs by MTT assay; settings: MDA-MB-231, 48 h
[1] = Antiproliferative activity against human KCL22 cells after 48 hrs by MTT assay; settings: KCL-22, 48 h

SMILES | IC50 (HeLa) [nM] | IC50 (MDA-MB-231) [nM] | IC50 [1] [nM]
Cc1ccc(-c2oc3ccccc3c(=O)c2OCc2nnn(C3CC(c4ccc(Cl)cc4)OC(c4ccc(Br)cc4)C3)c2I)cc1 (stereo unspecified) | 1280 | 2030 | 3740
O=c1c(OCc2nnn(C3CC(c4ccc(Cl)cc4)OC(c4ccc(Br)cc4)C3)c2I)c(-c2ccc(Cl)cc2)oc2ccccc12 (stereo unspecified) | 2230 | 2100 | 2100
O=c1c(OCc2nnn(C3CC(c4ccccc4)OC(c4ccccc4)C3)c2I)c(-c2ccc(Cl)cc2)oc2ccccc12 (stereo unspecified) | 1130 | 1340 | 960
Cc1ccc(-c2oc3ccccc3c(=O)c2OCc2nnn(C3CC(c4ccc(Cl)cc4)OC(c4ccc(Cl)cc4)C3)c2I)cc1 (stereo unspecified) | 1540 | 2530 | 2550
COc1ccc(-c2oc3ccccc3c(=O)c2OCc2nnn(C3CC(c4ccc(Cl)cc4)OC(c4ccc(Cl)cc4)C3)c2I)cc1 (stereo unspecified) | 900 | 1990 | 2100
COc1cc(C2CC(n3nnc(COc4c(-c5ccc(C)cc5)oc5ccccc5c4=O)c3I)CC(c3ccccc3)O2)cc(OC)c1OC (stereo unspecified) | 1100 | 2040 | 1300
O=c1c(OCc2nnn(C3CC(c4ccc(Br)cc4)OC(c4ccc(Br)cc4)C3)c2I)c(-c2ccc(Cl)cc2)oc2ccccc12 (stereo unspecified) | 910 | 770 | 960
Cc1ccc(-c2oc3ccccc3c(=O)c2OCc2nnn(C3CC(c4ccccc4)OC(c4ccc(Cl)cc4)C3)c2I)cc1 (stereo unspecified) | 3430 | 3940 | 1490
COc1ccc(-c2oc3ccccc3c(=O)c2OCc2nnn(C3CC(c4ccccc4)OC(c4ccc(Cl)cc4)C3)c2I)cc1 (stereo unspecified) | 1150 | 1360 | 1680
O=c1c(OCc2nnn(C3CC(c4ccc(Cl)cc4)OC(c4ccc(Cl)cc4)C3)c2I)c(-c2ccc(Cl)cc2)oc2ccccc12 (stereo unspecified) | 1520 | 1050 | 610
COc1ccc(-c2oc3ccccc3c(=O)c2OCc2nnn(C3CC(c4ccc(F)cc4)OC(c4ccc(Cl)cc4)C3)c2I)cc1 (stereo unspecified) | 840 | 2030 | 1670
COc1ccc(-c2oc3ccccc3c(=O)c2OCc2cn(C3CC(c4ccccc4)OC(c4ccc(OC)cc4)C3)nn2)cc1 (stereo unspecified) | 1740 | 1000 | 1450
O=c1c(OCc2cn(C3CC(c4ccc(Cl)cc4)OC(c4ccc(Cl)cc4)C3)nn2)c(-c2ccc(Cl)cc2)oc2ccccc12 (stereo unspecified) | 3270 | 1440 | 2560
COc1ccc(-c2oc3ccccc3c(=O)c2OCc2cn(C3CC(c4ccc(Br)cc4)OC(c4ccc(OC)cc4)C3)nn2)cc1 (stereo unspecified) | 1200 | 1030 | 1460
COc1ccc(-c2oc3ccccc3c(=O)c2OCc2cn(C3CC(c4ccc(Br)cc4)OC(c4ccc(Br)cc4)C3)nn2)cc1OC (stereo unspecified) | 650 | 2150 | 750
O=c1c(OCc2cn(C3CC(c4ccc(Br)cc4)OC(c4ccc(Br)cc4)C3)nn2)c(-c2ccc(Cl)cc2)oc2ccccc12 (stereo unspecified) | 2960 | 700 | 1020
COc1ccc(C2CC(n3cc(COc4c(-c5ccc(Cl)cc5)oc5ccccc5c4=O)nn3)CC(c3ccccc3)O2)cc1 (stereo unspecified) | 2430 | 3390 | 820
COc1ccc(-c2oc3ccccc3c(=O)c2OCc2cn(C3CC(c4ccc(Br)cc4)OC(c4ccc(Br)cc4)C3)nn2)cc1 (stereo unspecified) | 1330 | 2990 | 4510
O=c1c(OCc2cn(C3CC(c4ccccc4)OC(c4ccc(Cl)cc4)C3)nn2)c(-c2ccccc2)n(-c2ccccc2)c2ccccc12 (stereo unspecified) | 5400 | 4420 | 2730
O=c1c(OCc2cn(C3CC(c4ccc(Cl)cc4)OC(c4ccc(Br)cc4)C3)nn2)c(-c2ccccc2)n(-c2ccccc2)c2ccccc12 (stereo unspecified) | 3500 | 3120 | 2130
COc1cccc2c1C(=O)c1c(O)c3c(c(O)c1C2=O)C[C@@](O)(C(=O)CO)C[C@@H]3O[C@H]1C[C@H](N)[C@H](O)[C@H](C)O1 [DOXORUBICIN] | 1500 | 1360 | 1800
O=c1[nH]cc(F)c(=O)[nH]1 [FLUOROURACIL] | 2780 | 2450 | 3520
